The test system of series [1] is diet-induced obese (DIO) mice. The experiment in a line: Weight loss in diet-induced obese. The series is classed as in vivo, mouse. The following applies: 10 nmol/kg.
Series [2] has as its system diabetic db/db mouse model. In words: Long-term glucose-lowering after multiple doses. Conditions: db/db mice, kidney injury marker after multiple administration 10 nmol/kg. Type of series: in vivo.
The nature of another series: Pharmacokinetics. The following applies: SD male rats, single dose 0.05 mg/kg, plasma, LC-MS/MS, WinNonlin, mean n=3. Type of series: in vivo, rat.
The subject of series [3] is diabetic db/db mouse model. In words: Acute glucose-lowering after single dose in db/db mice. Type of series: in vivo.

Regarding Semaglutide, in series [1] (multiple administrations), the fat index result is on record as “reduced”. Moreover, the body weight reduction in series [1] (multiple administrations over 21 days, n=5) is 21.54%. Also, in series [2], the “serum creatinine (Scr)” value is on record as “significantly reduced” and the urinary albumin levels entry was “significantly reduced”. In “Pharmacokinetics”, the “half-life (T1/2)” value worked out at 8.17 h and the “mean residence time (MRT0-t), 0-[…]” value stood at 14.21 h. Also, the “time up to which the decrease of non-fasting blood glucose persisted” value in series [3] (single dose 10 nmol/kg) turned out to be 24 h. Besides, the “lowest non-fasting blood glucose level” value in series [3] (single dose 10 nmol/kg subcutaneous, mean±SD, n=6, SD) is 15.57 ± 5.16 mmol/L. Besides, in series [3] (single dose 10 nmol/kg, non-fasting glucose 0-120 hours), the “acute glucose-lowering effect compared with model group” value is recorded as “comparable glucose-lowering effects”.

(Values after article doi:10.1101/2025.03.26.645438v1 (bioRxiv, 2025).)
